According to ChEMBL document CHEMBL1124489, “Synthesis and thromboxane synthetase inhibitory activity of di- or tetrahydrobenzo[b]thiophenecarboxylic acid derivatives” (J Med Chem, 1989):

How the values were obtained:
[1] = biological target: Thromboxane-A synthase (Oryctolagus cuniculus); assay: Inhibition of thromboxane A2 synthetase
[2] = biological target: T1, Thromboxane-A synthase (Homo sapiens, UniProt P24557); assay: Inhibition of platelet microsomal thromboxane A synthetase in humans
T1 sequence (P24557 whole entry): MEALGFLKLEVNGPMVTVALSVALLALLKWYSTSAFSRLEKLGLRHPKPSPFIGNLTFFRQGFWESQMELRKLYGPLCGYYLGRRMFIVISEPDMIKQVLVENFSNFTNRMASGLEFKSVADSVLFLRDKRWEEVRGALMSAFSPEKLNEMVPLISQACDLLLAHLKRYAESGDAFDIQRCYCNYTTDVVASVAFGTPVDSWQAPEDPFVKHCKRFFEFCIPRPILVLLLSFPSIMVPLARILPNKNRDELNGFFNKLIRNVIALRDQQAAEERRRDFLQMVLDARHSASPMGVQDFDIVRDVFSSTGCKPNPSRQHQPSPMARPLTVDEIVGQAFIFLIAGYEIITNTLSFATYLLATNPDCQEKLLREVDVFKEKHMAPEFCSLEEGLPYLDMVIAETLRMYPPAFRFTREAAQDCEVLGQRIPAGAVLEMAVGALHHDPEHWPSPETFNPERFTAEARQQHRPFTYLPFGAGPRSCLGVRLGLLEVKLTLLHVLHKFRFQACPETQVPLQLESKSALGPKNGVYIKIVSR

[3] = biological target: T2, Thromboxane-A synthase (Rattus norvegicus) (UniProt P49430); assay: Inhibition of rat serum thromboxane A2 synthetase after 2 hr of oral administration of compound
T2 sequence (whole entry): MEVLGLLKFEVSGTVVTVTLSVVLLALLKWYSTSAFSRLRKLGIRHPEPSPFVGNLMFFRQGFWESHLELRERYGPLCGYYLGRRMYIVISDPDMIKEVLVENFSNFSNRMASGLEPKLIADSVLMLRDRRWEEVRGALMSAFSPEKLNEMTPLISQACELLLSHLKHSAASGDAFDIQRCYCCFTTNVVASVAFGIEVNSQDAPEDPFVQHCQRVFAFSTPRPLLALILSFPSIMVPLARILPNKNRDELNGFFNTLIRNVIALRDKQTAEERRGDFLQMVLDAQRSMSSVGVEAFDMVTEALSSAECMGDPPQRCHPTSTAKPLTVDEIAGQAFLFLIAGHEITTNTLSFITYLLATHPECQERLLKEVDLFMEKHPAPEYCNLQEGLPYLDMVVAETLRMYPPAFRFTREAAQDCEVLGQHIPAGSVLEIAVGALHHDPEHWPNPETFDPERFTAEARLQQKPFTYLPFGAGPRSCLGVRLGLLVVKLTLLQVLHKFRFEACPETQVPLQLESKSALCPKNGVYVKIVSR

[4] = tested on: Oryctolagus cuniculus; assay: Protection against sodium arachidonate induced sudden death in rabbit, 1 hr after peroral administration; assay type: functional; conditions: po
[5] = biological target: T2, Thromboxane-A synthase (Rattus norvegicus); conditions: Serum

Row | Structure (SMILES) | IC50 [1] [nM] | IC50 [2] [nM] | ID50 [3] [µmol/kg] | ED50 [4] [µmol/kg] | ID50 [5] [µmol/kg]
1 | O=C(O)C1CCc2cc(Cn3ccnc3)sc2C1 (centres undefined) | 26 | 20 | 0.027 | 0.9 | 
2 | O=C(O)c1ccc(OCCn2ccnc2)cc1 [DAZOXIBEN] |  |  |  | 3.17 | 0.468
3 | O=C(O)C1=Cc2sc(Cn3ccnc3)cc2CC1 [IMITRODAST] |  | 6 | 0.064 | 0.43 | 
